Patent publication US20260027073A1, “USE OF SMALL-MOLECULE COMPOUND HAVING NAPHTHYLAMINE STRUCTURE” (HANGZHOU PHECDAMED CO., LTD., priority 2023, published 2026)

What was measured:
[1] = system: LPS-induced sepsis in mice; experiment: LPS-induced sepsis survival; assay type: in vivo, C57 mice; conditions: 8th day; 10 mg/kg intraperitoneal once a day; LPS alone about 20%; FIG. 33
Method: A constructed preclinical sepsis model is a LPS-induced sepsis in mice. Injection of purified LPS into mice by intraperitoneal route or intravenous route can lead to activation of the innate immune system and simulate fulminant Gram-negative bacterial infections, the specific modeling method is as follows: 20-25 g C57 mice were selected, and 20 mg/kg LPS was injected intraperitoneally according to the body weight (the LPS was dissolved with PBS), and the experiment was divided into three groups, a model control group (LPS), a positive control treatment group (prednisone, 10 mg/kg), TJ01-013 treatment group (TJ01-013, 10 mg/kg), the mode of administration was intraperitoneal injection, the volume of administration was 5 ml/kg, the frequency of administration was once a day, and the biological deaths and changes in body weights of the mice were observed and recorded every day, and the mice were regarded as physiologically dead if their body weights decreased by 20% or more compared with that before the administration of LPS. Survival curves were plotted based on deaths observed up to 8 days after administration.

[2] = system: DSS-induced enteritis mice; experiment: DSS-induced inflammatory bowel disease; assay type: in vivo, C57BL/6J mice
Method: Eight-week-old C57BL/6J male mice were randomly divided into […], of which, G1 blank control group (8 mice), G2 positive control group (intraperitoneal injection of infliximab 10 mg/kg, 8 mice), G3 group (intraperitoneal injection of small-molecule drug TJ01-013, 5 mg/kg, 12 mice), G4 group (intraperitoneal injection of small-molecule drug TJ01-013, 10 mg/kg, 12 mice) and G5 group (intraperitoneal injection of small-molecule drug TJ01-013, 10 mg/kg, 12 mice). The configuration method of intraperitoneal injection drug was 5% DMSO+30% PEG400+65% ddH2O, the small-molecule compound was first dissolved in 5% DMSO, and then 30% PEG400 and 65% H2O were added sequentially, after 2 weeks of acclimatization, 2% DSS solution was given as drinking water for 6 days, and then was replaced with normal drinking water. During the experiment, the mice were injected intraperitoneally with the corresponding concentration of small-molecule compound every day; and the mice were recorded daily for weight change, fecal shape and blood in stool. During the experiment, the fecal shape and blood in stool were scored, and the disease activity index was calculated on day 3th, day 6th, and day 8th.
At the end of the experiment, after the mice were put to death with CO2, all the intestinal segments from the cecum to the anus were cut, photographed and measured for length.
The middle about 1 cm intestinal segment was taken into the embedding box and immersed in 4% paraformaldehyde, fixed and immersed for 72 h to prepare pathological specimens for HE staining, and the histopathological results were scored; tissue embedding, sectioning and HE staining were performed as follows:
The remaining intestinal segments were washed with pre-cooled saline using a 50 mL syringe, and after washing out the remaining liquid in the intestinal lumen, the tissues were cut into pieces with small scissors and mixed evenly, wrapped in tin foil and then rapidly frozen in liquid nitrogen, and all the operations were controlled to be completed within 10 minutes after the death of the mice. The tissues were lysed by Trizol, and RNA was extracted according to the instructions of Trizol; the obtained RNA was subjected to reverse transcription reaction with the Reverse Transcription Kit from ABI company; SYBR Green method was used to detect the inflammatory factors such as Cxcl1, G-CSF, IL6, IL-1β, S100A8, and TNF-α in the reversed transcription products, and the housekeeping gene Actin was used as an internal reference, and calculated and analyzed by 2-ΔΔCt method.

[3] = vs model control group, FIG. 23
[4] = vs model control group, FIG. 24

## O=C(O)C[S+]([O-])c1cc(NS(=O)(=O)c2ccc(Br)cc2)c2ccccc2c1O (stereo not shown) [I-1]
[1]
  survival rate: 80%
[2]; FIG. 23
  Histopathological scores: significantly reduced the pathological changes
[2]; intraperitoneal injection during DSS induction, FIG. 20
  weight loss of the mice: slowing down of the weight loss
[2]; intraperitoneal injection during DSS induction, FIG. 21
  disease activity index: reduction of the disease activity index
[2]; vs model control group, FIG. 22
  colorectal length: significantly greater
[2]; [3]
  colorectal tissue morphology (HE staining): more intact
  inflammatory infiltration of colorectal tissue: reduced
[2]; [4]
  Cxcl1 expression level in colorectal tissue (q-PCR): significantly reduced
  G-CSF expression level in colorectal tissue (q-PCR): significantly reduced
  IL6 expression level in colorectal tissue (q-PCR): significantly reduced
  IL-1β expression level in colorectal tissue (q-PCR): significantly reduced
  S100A8 expression level in colorectal tissue (q-PCR): significantly reduced
  TNF-α expression level in colorectal tissue (q-PCR): significantly reduced
